# Reference: ChEMBL document CHEMBL1201862, “PubChem BioAssay data set” (2004)
#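 Step 1: Grow cells in 96-well plates. Step 2: Expose to compound for 48 hours at 5 concentrations. Step 3: Interpolate endpoints linearly; if unreached, use highest concentration. At the GI50, growth is halved.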 The source made the active and inactive calls. Rule as the data show it: active = GI50 up to about 1.1 µM and inactive = higher.
# What was measured:
# Assay in all cases: NCI-60 cell line screen, 48 h
# IGROV-1 = system: IGROV-1
# SF-268 = system: SF-268
# HCT-15 = system: HCT-15
# 786-0 = system: 786-0
# Malme-3M = system: Malme-3M
# SF-295 = system: SF-295
# SK-OV-3 = system: SK-OV-3
# UO-31 = system: UO-31
# SN12C = system: SN12C
# MDA-MB-435 = system: MDA-MB-435
# DU-145 = system: DU-145
# MDA-MB-231 = system: MDA-MB-231
# OVCAR-4 = system: OVCAR-4
# M14 = system: M14
# SR = system: SR
# T47D = system: T47D
# UACC-257 = system: UACC-257
# HOP-92 = system: HOP-92
# NCI-H23 = system: NCI-H23
# RPMI-8226 = system: RPMI-8226
# SK-MEL-28 = system: SK-MEL-28
# SK-MEL-2 = system: SK-MEL-2
# BT-549 = system: BT-549
# A549 = system: A549
# OVCAR-3 = system: OVCAR-3
# MDA-N = system: MDA-N
# COLO 205 = system: COLO 205
# OVCAR-8 = system: OVCAR-8
# HCT-116 = system: HCT-116
# MOLT-4 = system: MOLT-4
# HOP-62 = system: HOP-62
# CAKI-1 = system: CAKI-1
# SK-MEL-5 = system: SK-MEL-5
# EKVX = system: EKVX
# SW-620 = system: SW-620
# ACHN = system: ACHN
# A498 = system: A498
# RXF 393 = system: RXF 393
# HCC 2998 = system: HCC 2998
# OVCAR-5 = system: OVCAR-5
# TK-10 = system: TK-10
# NCI-H226 = system: NCI-H226
# KM12 = system: KM12
# MCF7 = system: MCF7
# CCRF-CEM = system: CCRF-CEM
# K562 = system: K562
# NCI-H522 = system: NCI-H522
# SF-539 = system: SF-539
# HT-29 = system: HT-29
# PC-3 = system: PC-3
# LOX IMVI = system: LOX IMVI
# NCI/ADR-RES = system: NCI/ADR-RES
# UACC-62 = system: UACC-62
# SNB-19 = system: SNB-19
# U-251 = system: U-251
# NCI-H460 = system: NCI-H460
# Hs-578T = system: Hs-578T
# HL-60 = system: HL-60
# SNB-75 = system: SNB-75
smiles,measurement,setting,value
CC1(C)C[C@H]2[C@H](O)C(CO)=C3C(=O)[C@@H](O)[C@]3(C)[C@H]2C1,GI50,IGROV-1,> 100 µM (inactive)
same,GI50,SF-268,87.1 µM (inactive)
same,GI50,HCT-15,52.5 µM
same,GI50,786-0,> 100 µM (inactive)
same,GI50,Malme-3M,> 100 µM (inactive)
same,GI50,SF-295,> 100 µM (inactive)
same,GI50,SK-OV-3,> 100 µM (inactive)
same,GI50,UO-31,89.5 µM (inactive)
same,GI50,SN12C,> 100 µM (inactive)
same,GI50,MDA-MB-435,50.5 µM (inactive)
same,GI50,DU-145,> 100 µM (inactive)
same,GI50,MDA-MB-231,> 100 µM (inactive)
same,GI50,OVCAR-4,> 100 µM (inactive)
same,GI50,M14,> 100 µM (inactive)
same,GI50,SR,50.2 µM (inactive)
same,GI50,T47D,74.6 µM (inactive)
same,GI50,UACC-257,> 100 µM (inactive)
same,GI50,HOP-92,> 100 µM (inactive)
same,GI50,NCI-H23,63.7 µM (inactive)
same,GI50,RPMI-8226,38.4 µM (inactive)
same,GI50,SK-MEL-28,> 100 µM (inactive)
same,GI50,SK-MEL-2,> 100 µM (inactive)
same,GI50,BT-549,45.7 µM (inactive)
same,GI50,A549,> 100 µM (inactive)
same,GI50,OVCAR-3,> 100 µM (inactive)
same,GI50,MDA-N,80.2 µM (inactive)
same,GI50,COLO 205,> 100 µM (inactive)
same,GI50,OVCAR-8,> 100 µM (inactive)
same,GI50,HCT-116,75.9 µM (inactive)
same,GI50,MOLT-4,17.4 µM (inactive)
same,GI50,HOP-62,> 100 µM (inactive)
same,GI50,CAKI-1,> 100 µM (inactive)
same,GI50,SK-MEL-5,> 100 µM (inactive)
same,GI50,EKVX,> 100 µM (inactive)
same,GI50,SW-620,> 100 µM (inactive)
same,GI50,ACHN,> 100 µM (inactive)
same,GI50,A498,> 100 µM (inactive)
same,GI50,RXF 393,61.7 µM (inactive)
same,GI50,HCC 2998,> 100 µM (inactive)
same,GI50,OVCAR-5,> 100 µM (inactive)
same,GI50,TK-10,> 100 µM (inactive)
same,GI50,NCI-H226,> 100 µM (inactive)
same,GI50,KM12,> 100 µM (inactive)
same,GI50,MCF7,44.8 µM (inactive)
same,GI50,CCRF-CEM,24.5 µM (inactive)
same,GI50,K562,36.6 µM (inactive)
same,GI50,NCI-H522,64.6 µM (inactive)
same,GI50,SF-539,48.6 µM (inactive)
same,GI50,HT-29,85.7 µM (inactive)
same,GI50,PC-3,> 100 µM (inactive)
same,GI50,LOX IMVI,44.4 µM (inactive)
same,GI50,NCI/ADR-RES,> 100 µM (inactive)
same,GI50,UACC-62,> 100 µM (inactive)
same,GI50,SNB-19,> 100 µM (inactive)
same,GI50,U-251,> 100 µM (inactive)
COc1ccccc1CNC(=O)[C@H](Cc1ccc(O)cn1)NC(C)=O,GI50,IGROV-1,> 100 µM (inactive)
same,GI50,SF-268,> 100 µM (inactive)
same,GI50,HCT-15,> 100 µM
same,GI50,786-0,> 100 µM (inactive)
same,GI50,Malme-3M,> 100 µM (inactive)
same,GI50,SF-295,> 100 µM (inactive)
same,GI50,SK-OV-3,> 100 µM (inactive)
same,GI50,NCI-H460,> 100 µM (inactive)
same,GI50,Hs-578T,> 100 µM (inactive)
same,GI50,UO-31,> 100 µM (inactive)
same,GI50,SN12C,> 100 µM (inactive)
same,GI50,MDA-MB-435,> 100 µM (inactive)
same,GI50,DU-145,> 100 µM (inactive)
same,GI50,OVCAR-4,> 100 µM (inactive)
same,GI50,M14,> 100 µM (inactive)
same,GI50,SR,> 100 µM (inactive)
same,GI50,T47D,> 100 µM (inactive)
same,GI50,UACC-257,> 100 µM (inactive)
same,GI50,HOP-92,57.7 µM (inactive)
same,GI50,NCI-H23,> 100 µM (inactive)
same,GI50,RPMI-8226,> 100 µM (inactive)
same,GI50,SK-MEL-28,> 100 µM (inactive)
same,GI50,SK-MEL-2,> 100 µM (inactive)
same,GI50,BT-549,> 100 µM (inactive)
same,GI50,A549,> 100 µM (inactive)
same,GI50,OVCAR-3,> 100 µM (inactive)
same,GI50,MDA-N,> 100 µM (inactive)
same,GI50,COLO 205,> 100 µM (inactive)
same,GI50,HCT-116,> 100 µM (inactive)
same,GI50,HOP-62,> 100 µM (inactive)
same,GI50,CAKI-1,> 100 µM (inactive)
same,GI50,HL-60,> 100 µM (inactive)
same,GI50,SK-MEL-5,> 100 µM (inactive)
same,GI50,EKVX,> 100 µM (inactive)
same,GI50,SW-620,> 100 µM (inactive)
same,GI50,ACHN,> 100 µM (inactive)
same,GI50,A498,> 100 µM (inactive)
same,GI50,RXF 393,> 100 µM (inactive)
same,GI50,HCC 2998,> 100 µM (inactive)
same,GI50,OVCAR-5,> 100 µM (inactive)
same,GI50,TK-10,> 100 µM (inactive)
same,GI50,NCI-H226,> 100 µM (inactive)
same,GI50,KM12,> 100 µM (inactive)
same,GI50,MCF7,> 100 µM (inactive)
same,GI50,CCRF-CEM,> 100 µM (inactive)
same,GI50,K562,> 100 µM (inactive)
same,GI50,NCI-H522,> 100 µM (inactive)
same,GI50,SF-539,> 100 µM (inactive)
same,GI50,HT-29,> 100 µM (inactive)
same,GI50,PC-3,> 100 µM (inactive)
same,GI50,LOX IMVI,> 100 µM (inactive)
same,GI50,NCI/ADR-RES,> 100 µM (inactive)
same,GI50,UACC-62,> 100 µM (inactive)
same,GI50,SNB-19,> 100 µM (inactive)
same,GI50,U-251,> 100 µM (inactive)
Cn1c(N(CCO)CCO)cnc1[N+](=O)[O-],GI50,IGROV-1,> 100 µM (inactive)
same,GI50,SF-268,> 100 µM (inactive)
same,GI50,HCT-15,> 100 µM
same,GI50,786-0,> 100 µM (inactive)
same,GI50,Malme-3M,> 100 µM (inactive)
same,GI50,SF-295,> 100 µM (inactive)
same,GI50,SK-OV-3,> 100 µM (inactive)
same,GI50,NCI-H460,> 100 µM (inactive)
same,GI50,Hs-578T,> 100 µM (inactive)
same,GI50,UO-31,> 100 µM (inactive)
same,GI50,MDA-MB-435,> 100 µM (inactive)
same,GI50,MDA-MB-231,> 100 µM (inactive)
same,GI50,OVCAR-4,> 100 µM (inactive)
same,GI50,M14,> 100 µM (inactive)
same,GI50,SR,> 100 µM (inactive)
same,GI50,T47D,> 100 µM (inactive)
same,GI50,UACC-257,> 100 µM (inactive)
same,GI50,HOP-92,> 100 µM (inactive)
same,GI50,NCI-H23,> 100 µM (inactive)
same,GI50,RPMI-8226,> 100 µM (inactive)
same,GI50,SK-MEL-2,> 100 µM (inactive)
same,GI50,BT-549,> 100 µM (inactive)
same,GI50,A549,> 100 µM (inactive)
same,GI50,OVCAR-3,> 100 µM (inactive)
same,GI50,MDA-N,> 100 µM (inactive)
same,GI50,COLO 205,> 100 µM (inactive)
same,GI50,OVCAR-8,> 100 µM (inactive)
same,GI50,HCT-116,> 100 µM (inactive)
same,GI50,MOLT-4,> 100 µM (inactive)
same,GI50,HOP-62,> 100 µM (inactive)
same,GI50,CAKI-1,> 100 µM (inactive)
same,GI50,HL-60,> 100 µM (inactive)
same,GI50,SK-MEL-5,> 100 µM (inactive)
same,GI50,EKVX,> 100 µM (inactive)
same,GI50,SW-620,> 100 µM (inactive)
same,GI50,ACHN,> 100 µM (inactive)
same,GI50,A498,> 100 µM (inactive)
same,GI50,RXF 393,> 100 µM (inactive)
same,GI50,OVCAR-5,> 100 µM (inactive)
same,GI50,TK-10,> 100 µM (inactive)
same,GI50,NCI-H226,> 100 µM (inactive)
same,GI50,KM12,> 100 µM (inactive)
same,GI50,MCF7,> 100 µM (inactive)
same,GI50,CCRF-CEM,> 100 µM (inactive)
same,GI50,K562,> 100 µM (inactive)
same,GI50,NCI-H522,> 100 µM (inactive)
same,GI50,SF-539,> 100 µM (inactive)
same,GI50,HT-29,> 100 µM (inactive)
same,GI50,PC-3,> 100 µM (inactive)
same,GI50,LOX IMVI,> 100 µM (inactive)
same,GI50,NCI/ADR-RES,> 100 µM (inactive)
same,GI50,UACC-62,> 100 µM (inactive)
same,GI50,SNB-19,> 100 µM (inactive)
same,GI50,U-251,> 100 µM (inactive)
same,GI50,SNB-75,> 100 µM (inactive)
Nc1ccc2cc3ccc(N)cc3nc2c1,GI50,SF-268,1.37 µM (inactive)
same,GI50,SF-295,2.42 µM (inactive)
same,GI50,NCI-H460,0.46 µM (active)
same,GI50,Hs-578T,2.43 µM (inactive)
same,GI50,UO-31,0.993 µM (active)
same,GI50,SN12C,0.979 µM (active)
same,GI50,DU-145,3.33 µM (inactive)
same,GI50,MDA-MB-231,1.94 µM (inactive)
same,GI50,SR,0.667 µM (active)
same,GI50,T47D,2.63 µM (inactive)
same,GI50,UACC-257,2 µM (inactive)
same,GI50,SK-MEL-28,2 µM (inactive)
same,GI50,BT-549,3.72 µM (inactive)
same,GI50,OVCAR-3,2.09 µM (inactive)
same,GI50,MDA-N,1.41 µM (inactive)
same,GI50,COLO 205,0.771 µM (active)
same,GI50,OVCAR-8,0.678 µM (active)
same,GI50,HCT-116,0.482 µM (active)
same,GI50,MOLT-4,0.524 µM (active)
same,GI50,HOP-62,1.62 µM (inactive)
same,GI50,CAKI-1,1.56 µM (inactive)
same,GI50,HL-60,1.56 µM (inactive)
same,GI50,SK-MEL-5,1.4 µM (inactive)
same,GI50,EKVX,1.56 µM (inactive)
same,GI50,SW-620,0.395 µM (active)
same,GI50,ACHN,0.826 µM (active)
same,GI50,HCC 2998,1.25 µM (inactive)
same,GI50,OVCAR-5,1.63 µM (inactive)
same,GI50,TK-10,2.69 µM (inactive)
same,GI50,MCF7,0.757 µM (active)
same,GI50,CCRF-CEM,1 µM (active)
same,GI50,SF-539,1.02 µM (active)
same,GI50,HT-29,0.499 µM (active)
same,GI50,NCI/ADR-RES,1.03 µM (active)
same,GI50,UACC-62,1.41 µM (inactive)
same,GI50,SNB-75,1.34 µM (inactive)
